Results from patent US11091497B2, “Pyrano[3,4-b]pyrazine kappa opioid receptor ligands for treating addiction, pruritus, pain, and inflammation” (The Rockefeller University, priority 2017, dated 2021).
Read-outs that look alike come from different tables or passages of the source.

Experiments:
[1] = target: T1, human kappa opioid receptors (Homo sapiens, UniProt P41145); experiment: [35S]GTPγS stimulation, membranes from U2OS cells; format: biochemical; conditions: for Emax: read-out: GTPγS stimulation % efficacy
T1 construct: expressed in transfected cells; host or cells: U2OS
T1 sequence (P41145 whole entry): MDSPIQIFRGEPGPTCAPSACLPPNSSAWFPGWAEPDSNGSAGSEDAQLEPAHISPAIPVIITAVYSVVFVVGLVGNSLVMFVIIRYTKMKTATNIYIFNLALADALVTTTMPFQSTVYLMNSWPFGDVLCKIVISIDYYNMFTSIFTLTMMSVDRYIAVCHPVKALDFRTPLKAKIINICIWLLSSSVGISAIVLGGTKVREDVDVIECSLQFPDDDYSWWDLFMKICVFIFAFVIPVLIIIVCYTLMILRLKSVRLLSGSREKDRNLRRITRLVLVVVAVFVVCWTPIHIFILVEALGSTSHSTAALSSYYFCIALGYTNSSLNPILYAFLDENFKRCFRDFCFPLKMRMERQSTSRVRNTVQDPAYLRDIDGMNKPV
Experimental: Membranes from cells stably expressing kappa, mu or delta opioid receptor constructs (PathHunter U2OS hOPRK1, CHO-K1 rOPRM1 and CHO-K1 OPRD1 β-arrestin cell line, DiscoverX, Fremont, Calif., USA) were used. Cells were scraped from tissue culture plates, homogenized with a tissue tearor homogenizer in membrane buffer (10 mM Tris, 100 mM NaCl, and 1 mM EDTA; pH 7.4), and centrifuged at 20,000 g for 30 minutes at 4° C. and frozen at −80° C. until use. Prior to use, the pellets were resuspended in binding buffer (50 mm Tris, 100 mm NaCl, pH 7.4), homogenized with a dounce homogenizer and […] incubated with 1.0 nM of the appropriate tritiated ligand ([^3H]U69,593, [^3H]DAMGO or [^3H]DPDPE for kappa, mu or delta binding, respectively) and the appropriate concentration of compound for 60 minutes at 30° C. Membranes with bound tritiated ligand were collected on Whatman GF/B filter paper (Brandel, Gaithersburg, Md., USA) utilizing a Brandel harvester. Bound tritiated ligand was quantified using a TriCarb-2900TR scintillation counter (Packard, Downers Grove, Ill., USA) following addition of 4 ml ReadySafe scintillation fluid (Beckman Coulter, Indianapolis, Ind., USA). Compiled data for each compound was normalized to the maximal binding in the absence of compound, with non-specific binding subtracted. Curve fitting was done in Microcal Origin 17.0 software using logistic sigmoidal fit, to determine IC50. GTPgammaS Membranes from U2OS cells stably expressing human kappa opioid receptors were used. Cells were scraped from tissue culture plates, homogenized with a tissue tearor homogenizer in membrane buffer (10 mM Tris, 100 mM NaCl, and 1 mM EDTA; pH 7.4), and centrifuged at 20,000 g for 30 minutes at 4° C. and frozen at −80° C. until use. Prior to use, the pellets were resuspended in assay buffer (50 mm Tris, 100 mm NaCl, 5 mM MgCl2, and 1 mM EDTA; pH 7.4) and homogenized with a dounce homogenizer and 50 μg incubated with 0.1 nM [35 S]GTPγS, 10 nM GDP, and the appropriate concentration of agonist for 20 minutes at 30° C. To test inhibition, all samples were incubated with 100 nM U69,593 as well as the appropriate concentration of compound. Membranes with bound [35 S]GTPγS were collected on Whatman GF/B filter paper (Brandel, Gaithersburg, Md., USA) utilizing a Brandel harvester. Bound [35 S]GTPγS was quantified using a TriCarb-2900TR scintillation counter (Packard, Downers Grove, Ill., USA) following addition of 4 mL ReadySafe scintillation fluid (Beckman Coulter, Indianapolis, Ind., USA). […] For each compound, curve fitting was done in Microcal Origin 17.0 software using logistic sigmoidal fit, to determine EC50 and maximal percent stimulation, which in turn was normalized to the maximal percent stimulation of the test full agonist compound U69,593 to determine % efficacy. β2-Arrestin Experiments were conducted using the PathHunter Detection Kit obtained from DiscoverX. Cells stably expressing kappa, mu or delta opioid receptor constructs (PathHunter U2OS hOPRK1, CHO-K1 rOPRM1 and CHO-K1 OPRD1 β-arrestin cell line, DiscoverX, Fremont, Calif., USA) were plated in 96- or 384-well plates. Cells were stimulated with the compounds for 90 minutes at 37° C. To test inhibition, all samples were incubated with 100 nM U69,593 as well as the appropriate concentration of compound. Cells were then incubated for 60 minutes in the presence of galoctosidase substrate, yielding chemiluminescent product. Chemiluminescence was measured using a Synergy Neo microplate reader (BioTek, Winooski, Vt., USA). Antagonism assays were done in the same manner, in the presence of 300 nM U69,593, 1 μM DAMGO or 1 μM DPDPE for KOP-R, MOP-R or DOP-R assays, respectively.

[2] = target: T2, kappa opioid receptor (PathHunter U2OS hOPRK1 membranes) (Homo sapiens, UniProt P41145); experiment: Tritiated U69,593 binding for KOP-R membranes
T2 construct: host or cells: U2OS (PathHunter U2OS hOPRK1 β-arrestin cell line)
T2 sequence (P41145 whole entry): as above
Experimental: Tritiated U69,593 binding for KOP-R membranes; tritiated DAMGO binding for MOP-R membranes; and tritiated DPDPE binding for DOP-R membranes:
(§1) Membranes from cells stably expressing kappa, mu or delta opioid receptor constructs (PathHunter U2OS hOPRK1, CHO-K1 rOPRM1 and CHO-K1 OPRD1 β-arrestin cell line, DiscoverX, Fremont, Calif., USA) were used. Cells were scraped from tissue culture plates, homogenized with a tissue tearor homogenizer in membrane buffer (10 mM Tris, 100 mM NaCl, and 1 mM EDTA; pH 7.4), and centrifuged at 20,000 g for 30 minutes at 4° C. and frozen at −80° C. until use. Prior to use, the pellets were resuspended in binding buffer (50 mm Tris, 100 mm NaCl, pH 7.4), homogenized with a dounce homogenizer and […] incubated with 1.0 nM of the appropriate tritiated ligand ([^3H]U69,593, [^3H]DAMGO or [^3H]DPDPE for kappa, mu or delta binding, respectively) and the appropriate concentration of compound for 60 minutes at 30° C. Membranes with bound tritiated ligand were collected on Whatman GF/B filter paper (Brandel, Gaithersburg, Md., USA) utilizing a Brandel harvester. Bound tritiated ligand was quantified using a TriCarb-2900TR scintillation counter (Packard, Downers Grove, Ill., USA) following addition of 4 ml ReadySafe scintillation fluid (Beckman Coulter, Indianapolis, Ind., USA). Compiled data for each compound was normalized to the maximal binding in the absence of compound, with non-specific binding subtracted. Curve fitting was done in Microcal Origin 17.0 software using logistic sigmoidal fit, to determine IC50. GTPgammaS Membranes from U2OS cells stably expressing human kappa opioid receptors were used. Cells were scraped from tissue culture plates, homogenized with a tissue tearor homogenizer in membrane buffer (10 mM Tris, 100 mM NaCl, and 1 mM EDTA; pH 7.4), and centrifuged at 20,000 g for 30 minutes at 4° C. and frozen at −80° C. until use. Prior to use, the pellets were resuspended in assay buffer (50 mm Tris, 100 mm NaCl, 5 mM MgCl2, and 1 mM EDTA; pH 7.4) and homogenized with a dounce homogenizer and 50 μg incubated with 0.1 nM [35 S]GTPγS, 10 nM GDP, and the appropriate concentration of agonist for 20 minutes at 30° C. To test inhibition, all samples were incubated with 100 nM U69,593 as well as the appropriate concentration of compound. Membranes with bound [35 S]GTPγS were collected on Whatman GF/B filter paper (Brandel, Gaithersburg, Md., USA) utilizing a Brandel harvester. Bound [35 S]GTPγS was quantified using a TriCarb-2900TR scintillation counter (Packard, Downers Grove, Ill., USA) following addition of 4 mL ReadySafe scintillation fluid (Beckman Coulter, Indianapolis, Ind., USA). […] NA indicates not applicable. For each compound, curve fitting was done in Microcal Origin 17.0 software using logistic sigmoidal fit, to determine EC50 and maximal percent stimulation, which in turn was normalized to the maximal percent stimulation of the test full agonist compound U69,593 to determine % efficacy. β2-Arrestin Experiments were conducted using the PathHunter Detection Kit obtained from DiscoverX. Cells stably expressing kappa, mu or delta opioid receptor constructs (PathHunter U2OS hOPRK1, CHO-K1 rOPRM1 and CHO-K1 OPRD1 β-arrestin cell line, DiscoverX, Fremont, Calif., USA) were plated in 96- or 384-well plates. Cells were stimulated with the compounds for 90 minutes at 37° C. To test inhibition, all samples were incubated with 100 nM U69,593 as well as the appropriate concentration of compound. Cells were then incubated for 60 minutes in the presence of galoctosidase substrate, yielding chemiluminescent product. Chemiluminescence was measured using a Synergy Neo microplate reader (BioTek, Winooski, Vt., USA). Antagonism assays were done in the same manner, in the presence of 300 nM U69,593, 1 μM DAMGO or 1 μM DPDPE for KOP-R, MOP-R or DOP-R assays, respectively. […] NA indicates not applicable. […]

[3] = target: T3, kappa opioid receptor (PathHunter U2OS hOPRK1 β-arrestin cell line) (Homo sapiens, UniProt P41145); experiment: β-arrestin coupling (PathHunter Detection Kit); format: cell-based; conditions: for Emax at 10 µM: U2OS; for β-arrestin coupling % efficacy: maximal, normalized to U69,593
T3 construct: host or cells: U2OS (PathHunter U2OS hOPRK1 β-arrestin cell line)
T3 sequence (P41145 whole entry): as above
Experimental: as §1

[4] = read-out: β-arrestin coupling % efficacy at 10 μM
[5] = 1.0 nM [3H]U69,593, 60 minutes at 30° C., read-out: Binding IC50
[6] = No stim = no stimulation at highest dose tested, 10,000 nM

SMILES	EC50 [1] [nM]	Emax [1] [%]	IC50 [2] [nM]	Emax at 10 µM [3, 4] [%]	IC50 [2, 5] [nM]	β-arrestin coupling % efficacy [3, 6]	β-arrestin coupling EC50 ([3]; 90 minutes at 37° C., No stim = no stimulation at highest dose tested, 10,000 nM)	EC50 [3] [nM]	Emax at 10 µM ([3]; read-out: β-arrestin coupling % efficacy) [%]
CC(C)CN1CCN(C(=O)Cc2ccc(Cl)c(Cl)c2)[C@H]2[C@H]1COC[C@@H]2N1CCCC1 [Example 5A71]	14	93	27	40					
O=C(Cc1ccc(Cl)c(Cl)c1)N1CCN(S(=O)(=O)C2CC2)[C@@H]2COC[C@H](N3CCCC3)[C@H]21 (single isomer, unassigned) [Example 5A52A]	1.7	119	3.6	60					
CCN(CC)[C@H]1COC[C@H]2NCCN(C(=O)Cc3ccc(Cl)c(Cl)c3)[C@@H]21 (racemic) [Example 5A64]	2120	68			1920	No stim			
O=C(Cc1ccc(Cl)c(Cl)c1)N1CCN(S(=O)(=O)C2CC2)[C@H]2COC[C@@H](N3CCCC3)[C@@H]21 (single isomer, unassigned) [Example 5A52B]	18	96	27	25					
Cc1ccc(CC(=O)N2CCN[C@@H]3COC[C@H](N4CCCC4)[C@H]32)cc1Cl (racemic) [Example 5A57]	62	98	42	20					
O=C(Cc1ccc(Cl)c(Cl)c1)N1CCN(CC2CCC2)[C@@H]2COC[C@H](N3CCCC3)[C@H]21 (racemic) [Example 5A55]	21	67	57	40					
O=C(Cc1ccc(Cl)cc1)N1CCN[C@@H]2COC[C@H](N3CCCC3)[C@H]21 (racemic) [Example 5A66]	566	140		20	456				
O=C(Cc1cccc(Cl)c1)N1CCN[C@H]2COC[C@@H](N3CCCC3)[C@@H]21 (single isomer, unassigned) [Example 5A24B]	1370	102		0	1130				
O=C(Cc1ccc(Cl)c(Cl)c1)N1CCN(CC2CCCC2)[C@@H]2COC[C@H](N3CCCC3)[C@H]21 (racemic) [Example 5A54]	31	73	73	20					
O=C(Cc1cccc(Cl)c1)N1CCN[C@@H]2COC[C@H](N3CCCC3)[C@H]21 (single isomer, unassigned) [Example 5A24A]	384	115		0	463				
CCCN1CCN(C(=O)Cc2ccc(Cl)c(Cl)c2)[C@H]2[C@H]1COC[C@@H]2N1CCCC1 (racemic) [Example 5A72]	12	111	26	50					
Cc1cc(CC(=O)N2CCN[C@@H]3COC[C@H](N4CCCC4)[C@H]32)ccc1Cl (racemic) [Example 5A58]	261	161		20	116				
O=C(Cc1cc(Cl)cc(Cl)c1)N1CCN[C@@H]2COC[C@H](N3CCCC3)[C@H]21 (racemic) [Example 5A32]	464	66.5			410	No stim	No stim		
O=C(Cc1cccc(C(F)(F)F)c1)N1CCN[C@@H]2COC[C@H](N3CCCC3)[C@H]21 (racemic) [Example 5A26]	130	108			112			3260	42
CN(C)[C@H]1COC[C@H]2NCCN(C(=O)Cc3ccc(Cl)c(Cl)c3)[C@@H]21 (racemic) [Example 5A51]	108	71			120	No stim			
O=C(Cc1ccc(Cl)c(Cl)c1)N1CCN(CC2CCC2)[C@H]2COC[C@@H](N3CCCC3)[C@@H]21 (single isomer, unassigned) [Example 5A55B]	13	62	20	80					
